Results from ChEMBL document CHEMBL1132784, “Dibasic inhibitors of human mast cell tryptase. Part 2: structure-activity relationships and requirements for potent activity” (Bioorg Med Chem Lett, 2000).

How the values were obtained:
Plasminogen = Plasminogen (Homo sapiens, UniProt P00747); test: Compound was evaluated for its inhibitory potency against plasmin
Tryptase = Tryptase (Homo sapiens, UniProt Q9BZJ3+Q15661+Q9NRR2); test: Evaluated for its inhibitory potency against tryptase; assay type: protein assay
Prothrombin = Prothrombin (Homo sapiens, UniProt P00734); test: Compound was evaluated for its inhibitory potency against thrombin
Serine protease 1 = Serine protease 1 (Homo sapiens, UniProt P07477); test: Compound was evaluated for its inhibitory potency against trypsin
Serine protease 1, sequence (P07477 whole entry): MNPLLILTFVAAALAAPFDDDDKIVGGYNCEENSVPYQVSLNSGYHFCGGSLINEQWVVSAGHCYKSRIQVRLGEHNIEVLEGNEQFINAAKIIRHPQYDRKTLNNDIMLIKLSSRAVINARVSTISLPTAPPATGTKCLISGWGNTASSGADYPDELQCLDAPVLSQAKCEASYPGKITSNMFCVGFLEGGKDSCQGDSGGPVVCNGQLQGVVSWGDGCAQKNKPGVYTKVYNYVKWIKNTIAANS

Plasminogen, sequence (P00747 97-580 limits assumed): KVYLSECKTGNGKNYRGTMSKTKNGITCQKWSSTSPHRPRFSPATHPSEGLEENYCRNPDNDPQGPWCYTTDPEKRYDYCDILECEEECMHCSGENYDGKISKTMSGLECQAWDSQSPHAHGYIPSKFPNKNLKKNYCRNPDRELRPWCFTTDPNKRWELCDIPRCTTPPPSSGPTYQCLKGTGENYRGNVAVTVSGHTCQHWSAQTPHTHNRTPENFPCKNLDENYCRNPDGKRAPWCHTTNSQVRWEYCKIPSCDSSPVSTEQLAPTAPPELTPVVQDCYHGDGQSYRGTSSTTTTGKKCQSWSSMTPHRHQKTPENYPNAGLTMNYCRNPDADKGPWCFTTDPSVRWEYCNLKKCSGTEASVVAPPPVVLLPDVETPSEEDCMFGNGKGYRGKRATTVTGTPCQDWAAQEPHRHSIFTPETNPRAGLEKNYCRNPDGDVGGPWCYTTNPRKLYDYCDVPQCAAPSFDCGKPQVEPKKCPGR
Plasminogen, sequence (P00747 581-810 limits assumed): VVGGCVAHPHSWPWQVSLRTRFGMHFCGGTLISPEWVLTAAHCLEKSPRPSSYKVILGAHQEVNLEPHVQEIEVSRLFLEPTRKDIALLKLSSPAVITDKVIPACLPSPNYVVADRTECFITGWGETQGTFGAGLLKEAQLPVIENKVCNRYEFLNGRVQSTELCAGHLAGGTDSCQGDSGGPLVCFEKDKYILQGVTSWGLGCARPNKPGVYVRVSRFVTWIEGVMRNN

| SMILES | Ki (Plasminogen) [µM] | Ki (Tryptase) [µM] | Ki (Prothrombin) [µM] | Ki (Serine protease 1) [µM] |
| --- | --- | --- | --- | --- |
| N=C(N)c1ccc(CNC(=O)N2CCN(C(=O)O[C@H]3CCC[C@@H](OC(=O)N4CCN(C(=O)NCc5ccc(C(=N)N)cc5)CC4)CCC3)CC2)cc1 | 134 | 0.009 | 60 | 25 |
| N=C(N)Nc1ccc(CNC(=O)N2CCN(C(=O)O[C@H]3CCC[C@@H](OC(=O)N4CCN(C(=O)CCSc5ccncc5)CC4)CCC3)CC2)cc1 | > 1000 | 0.08 | 741 | 156 |
| N=C(N)Nc1ccc(CNC(=O)N2CCN(C(=O)CCCCC(=O)N3CCN(C(=O)NCc4ccc(NC(=N)N)cc4)CC3)CC2)cc1 | 316 | 0.044 | > 1000 | 54 |
| CNCc1ccc(CNC(=O)N2CCN(C(=O)O[C@H]3CCC[C@@H](OC(=O)N4CCN(C(=O)NCc5ccc(CNC)cc5)CC4)CCC3)CC2)cc1 | > 1000 | 6 | > 1000 | > 1000 |
| NCCCCCCNC(=O)N1CCN(C(=O)O[C@H]2CCC[C@@H](OC(=O)N3CCN(C(=O)NCCCCCCN)CC3)CCC2)CC1 | > 1000 | 1 | > 1000 | > 1000 |
| CC(=N)N1CCC(CNC(=O)N2CCN(C(=O)O[C@H]3CCC[C@@H](OC(=O)N4CCN(C(=O)NCC5CCN(C(C)=N)CC5)CC4)CCC3)CC2)CC1 | > 1000 | > 1000 | > 1000 | > 1000 |
| N=C(N)Nc1ccc(CC(=O)N2CCN(C(=O)O[C@H]3CCC[C@@H](OC(=O)N4CCN(C(=O)Cc5ccc(NC(=N)N)cc5)CC4)CCC3)CC2)cc1 | > 1000 | 0.0005 | 255 | 82 |
| N=C(N)c1ccc(CCNC(=O)N2CCN(C(=O)O[C@H]3CCC[C@@H](OC(=O)N4CCN(C(=O)NCCc5ccc(C(=N)N)cc5)CC4)CCC3)CC2)cc1 | 60 | 0.44 | 36 | 66 |
| N=C(N)c1ccc(CC(=O)N2CCN(C(=O)O[C@H]3CCC[C@@H](OC(=O)N4CCN(C(=O)Cc5ccc(C(=N)N)cc5)CC4)CCC3)CC2)cc1 | 155 | 0.0002 | 34 | 11 |
| N=C(N)Nc1ccc(CNC(=O)N2CCN(C(=O)O[C@H]3CCC[C@@H](OC(=O)N4CCN(C(=O)CCNc5ccncc5)CC4)CCC3)CC2)cc1 | > 1000 | 0.097 | > 1000 | 111 |
| N=C(N)Nc1ccc(CNC(=O)N2CCN(C(=O)O[C@H]3CCC[C@@H](OC(=O)N4CCN(C(=O)NCCCCCN)CC4)CCC3)CC2)cc1 | > 1000 | 0.0005 | > 1000 | 129 |
| O=C(CCCC1CCNCC1)N1CCN(C(=O)O[C@H]2CCC[C@@H](OC(=O)N3CCN(C(=O)CCCC4CCNCC4)CC3)CCC2)CC1 | > 1000 | 0.1 | > 1000 | > 1000 |
| N=C(N)N1CCC(CC(=O)N2CCN(C(=O)O[C@H]3CCC[C@@H](OC(=O)N4CCN(C(=O)CC5CCN(C(=N)N)CC5)CC4)CCC3)CC2)CC1 | > 1000 | 0.005 | 130 | 445 |
| N=C(N)Nc1ccc(CNC(=O)N2CCN(C(=O)CCCCCCCC(=O)N3CCN(C(=O)NCc4ccc(NC(=N)N)cc4)CC3)CC2)cc1 | > 1000 | 0.0005 | > 1000 | 29 |
| N=C(N)Nc1ccc(CNC(=O)N2CCN(C(=O)O[C@H]3CCC[C@@H](OC(=O)N4CCN(C(=O)NCC5CCNCC5)CC4)CCC3)CC2)cc1 | > 1000 | 0.07 | > 1000 | 148 |
| N=C(N)Nc1ccc(CNC(=O)N2CCN(C(=O)O[C@H]3CCC[C@@H](OC(=O)N4CCN(C(=O)NCc5ccc(N)cc5)CC4)CCC3)CC2)cc1 | > 1000 | 0.82 | > 1000 | 126 |
